Conditions: 1.0% DMSO, 24-hour incubation at ambient temperature, maximum theoretical 100 μM; for pH 2 solubility: 0.1N HCl, first value of the cell; for pH 7 solubility: 1×PBS buffer (pH 7.4), second value of the cell

Structure (SMILES)	pH 2 solubility	pH 7 solubility
CC(=O)N(c1nn(CC(F)(F)F)c2c(-c3ccc(C#CC(C)(C)S(C)(=O)=O)nc3[C@H](Cc3cc(F)cc(F)c3)NC(=O)Cn3nc(C(F)(F)F)c4c3C(F)(F)[C@@H]3C[C@H]43)ccc(Cl)c12)S(C)(=O)=O [Compound 1, N—((S)-1-(3-(4-chloro-3-(N-(methylsulfonyl)acetamido)-1-(2,2,2-trifluoroethyl)-1H-indazol-7-yl)-6-(3-methyl-3-(methylsulfonyl)but-1-yn-1-yl)pyridin-2-yl)-2-(3,5-difluorophenyl)ethyl)-2-((3bS,4aR)-5,5-difluoro-3-(trifluoromethyl)-3b,4,4a,5-tetrahydro-1H-cyclopropa[3,4]cyclopenta[1,2-c]pyrazol-1-yl)acetamide]	1/1 μM	1/1 μM
CC(C)(C#Cc1ccc(-c2ccc(Cl)c3c(N(C(=O)CN4CCOCC4)S(C)(=O)=O)nn(CC(F)(F)F)c23)c([C@H](Cc2cc(F)cc(F)c2)NC(=O)Cn2nc(C(F)(F)F)c3c2C(F)(F)[C@@H]2C[C@H]32)n1)S(C)(=O)=O [Compound 4, (N-(4-chloro-7-(2-((S)-1-(2-((3bS,4aR)-5,5-difluoro-3-(trifluoromethyl)-3b,4,4a,5-tetrahydro-1H-cyclopropa[3,4]cyclopenta[1,2-c]pyrazol-1-yl)acetamido)-2-(3,5-difluorophenyl)ethyl)-6-(3-methyl-3-(methylsulfonyl)but-1-yn-1-yl)pyridin-3-yl)-1-(2,2,2-trifluoroethyl)-1H-indazol-3-yl)-N-(methylsulfonyl)-2-morpholinoacetamide)]	33 μM	7 μM
CC(C)(C#Cc1ccc(-c2ccc(Cl)c3c(N(C(=O)CCN4CCOCC4)S(C)(=O)=O)nn(CC(F)(F)F)c23)c([C@H](Cc2cc(F)cc(F)c2)NC(=O)Cn2nc(C(F)(F)F)c3c2C(F)(F)[C@@H]2C[C@H]32)n1)S(C)(=O)=O [Compound 5, N-(4-chloro-7-(2-((S)-1-(2-((3bS,4aR)-5,5-difluoro-3-(trifluoromethyl)-3b,4,4a,5-tetrahydro-1H-cyclopropa [3,4]cyclopenta [1,2-c]pyrazol-1-yl)acetamido)-2-(3,5-difluorophenyl)ethyl)-6-(3-methyl-3-(methylsulfonyl)but-1-yn-1-yl)pyridin-3-yl)-1-(2,2,2-trifluoroethyl)-1H-indazol-3-yl)-N-(methylsulfonyl)-3-morpholinopropanamide]	39 μM	9 μM
CN1CCN(CC(=O)N(c2nn(CC(F)(F)F)c3c(-c4ccc(C#CC(C)(C)S(C)(=O)=O)nc4[C@H](Cc4cc(F)cc(F)c4)NC(=O)Cn4nc(C(F)(F)F)c5c4C(F)(F)[C@@H]4C[C@H]54)ccc(Cl)c23)S(C)(=O)=O)CC1 [Compound 6, (N-(4-chloro-7-(2-((S)-1-(2-((3bS,4aR)-5,5-difluoro-3-(trifluoromethyl)-3b,4,4a,5-tetrahydro-1H-cyclopropa[3,4]cyclopenta[1,2-c]pyrazol-1-yl)acetamido)-2-(3,5-difluorophenyl)ethyl)-6-(3-methyl-3-(methylsulfonyl)but-1-yn-1-yl)pyridin-3-yl)-1-(2,2,2-trifluoroethyl)-1H-indazol-3-yl)-2-(4-methylpiperazin-1-yl)-N-(methylsulfonyl)acetamide)]	50 μM	3 μM
CC(C)(C#Cc1ccc(-c2ccc(Cl)c3c(N(C(=O)CN4CCNCC4)S(C)(=O)=O)nn(CC(F)(F)F)c23)c([C@H](Cc2cc(F)cc(F)c2)NC(=O)Cn2nc(C(F)(F)F)c3c2C(F)(F)[C@@H]2C[C@H]32)n1)S(C)(=O)=O [Compound 7, (N-(4-chloro-7-(2-((S)-1-(2-((3bS,4aR)-5,5-difluoro-3-(trifluoromethyl)-3b,4,4a,5-tetrahydro-1H-cyclopropa[3,4]cyclopenta[1,2-c]pyrazol-1-yl)acetamido)-2-(3,5-difluorophenyl)ethyl)-6-(3-methyl-3-(methylsulfonyl)but-1-yn-1-yl)pyridin-3-yl)-1-(2,2,2-trifluoroethyl)-1H-indazol-3-yl)-N-(methylsulfonyl)-2-(piperazin-1-yl)acetamide)]	65 μM	7 μM
